Data on six compounds can be found in patent publication US20250360111A1, “COMPOSITIONS OF AGPAT4 INHIBITORS AND METHODS OF USING THEREOF TO TREAT CANCER” (The University of Hong Kong, priority 2024, published 2025).

The subject of data set [1] is HCC. As to conditions: Asian study; cited from earlier work.
Data set [2] relates to HCC. To be noted: cited from earlier work.
Data set [3] relates to HCC. To be noted: cited from earlier work. This is another data set of the same source.
The test system of a further data set is NRAS+AKT-driven HCC. Description: NRAS+AKT HTVI HCC mouse model, AAV8-shAgpat4 and sorafenib. It counts as in vivo, C57BL/6 mice. To be noted: sorafenib alone, control (NTC) group. Here is the method:
Six- to eight-week-old male wildtype C57BL/6 mice (Jackson Laboratory) were used in this study. HTVI procedure was carried out as previously described (41, 42). Briefly, 20 μg of plasmids encoding human AKT1 (myristylated AKT1 or myr-AKT1) and human neuroblastoma Ras viral oncogene homolog (N-RasV12) along with sleeping beauty (SB) transposase at a ratio of 25:1 was diluted in 2 ml of saline (0.9% NaCl), filtered through a 0.22 μm filter and injected into the lateral tail vein of C57BL/6 mice in 5-7 s.
Four weeks after hydrodynamic tail vein injection of proto-oncogenes and SB transposase, the mice were separated into two groups and administered 1×10^11 transducing units of AAV8 virus encoding either shNTC or shAgpat4 in 100 μL PBS via tail vein injection. At 5.5 weeks, mice were administered another dose of the shNTC or shAgpat4 AAV8 virus. Mouse shNTC and mouse shAgpat4 target sequences were cloned into the LV3 vector: 5′-[…] TTTG-3′ (SEQ ID NO:1) and 5′-[…] […]-3′ (SEQ ID NO:2), respectively.
Sorafenib (30 mg/kg/day, delivered orally daily) administration began at 2-3 weeks post HTVI injection, at which point tumors started to develop. Sorafenib treatment lasted for 2.5 weeks, when tumors became non-responsive to the treatment (21). […] Tumor-bearing mice were euthanized at the humane endpoint.

A further data set relates to HCC cells (Huh7). Nature of the data set: Rescue and PA addition experiments: migration, invasion, limiting dilution spheroid formation, western blot. It counts as cell-based, human. To be noted: exogenous PA added to HCC cells. Here is the method:
Cells at limited dilutions were cultured in 100 μL serum-free DM E M/F12 medium (Invitrogen) supplemented with 20 ng/mL human recombinant epidermal growth factor (Sigma-Aldrich), 10 ng/mL human recombinant basic fibroblast growth factor (Sigma-Aldrich), […] (Sigma-Aldrich), B27 (1:50; Invitrogen), 500 U/mL penicillin, […] (Invitrogen), and 0.25% methylcellulose (Sigma-Aldrich). Cells were cultured in suspension in polyHEMA-coated 96-well plates. The cells were replenished with 30 μL of the supplemented medium every second day. The wells were monitored for sphere formation for 7-10 days. The tumor-initiating cell frequency was calculated using extreme limiting dilution analysis.
Cells were lysed in RIPA buffer (Cell Signalling Technology) containing a complete protease inhibitor cocktail (Roche) and PMSF (Sigma-Aldrich). Protein lysates were quantified and resolved on an SDS-PAGE gel, transferred onto a PV DF membrane (Pall), immunoblotted with a primary antibody, and incubated with a secondary antibody. The antibody signal was detected using the A mersham ECL Select Western Blotting Detection Reagent (GE Healthcare). […]
(In general: In western blotting, separated proteins are transferred to a membrane and probed.)

A further data set has as its target T1, AGPAT4 (Homo sapiens, UniProt Q9NRZ5, C228A).
T1 construct: The open reading frame (ORF) encoding the mRNA of AGPAT4 was cloned into the pDONR-221 donor vector; expressed in transfected cells; host or cells: Huh7
T1 sequence (Q9NRZ5 1-378 C228A): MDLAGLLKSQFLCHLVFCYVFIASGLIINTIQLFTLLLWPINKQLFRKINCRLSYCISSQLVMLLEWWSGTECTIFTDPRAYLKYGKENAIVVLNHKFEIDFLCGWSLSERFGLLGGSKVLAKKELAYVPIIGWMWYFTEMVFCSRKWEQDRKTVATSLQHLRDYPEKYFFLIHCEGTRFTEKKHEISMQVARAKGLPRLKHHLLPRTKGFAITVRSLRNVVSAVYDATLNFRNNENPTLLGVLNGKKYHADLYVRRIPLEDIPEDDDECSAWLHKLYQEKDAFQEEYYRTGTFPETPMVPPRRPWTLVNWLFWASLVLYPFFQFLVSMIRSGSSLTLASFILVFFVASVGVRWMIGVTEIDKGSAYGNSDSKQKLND
Description: Competitive gel-based ABPP in live cells with CL26-alkyne probe. It is filed as cell-based. As to conditions: Huh7 cells, AGPAT4 C228A mutation. The procedure:
An in-gel fluorescence assay was performed to investigate the protein targets of CL26. Huh7 cells overexpressing AGPAT4 or cysteine mutants were pre-treated with CL26 at the indicated concentrations for 2 h, followed by CL26-alkyne (1 μM) treatment for another 2 h. Cells were harvested in RIPA buffer supplemented with protease and phosphatase inhibitors (Thermo Fisher Scientific #A32961). The proteins were precipitated by incubation with 6× volume of pre-chilled acetone at −20° C. overnight. Proteins were pelleted by centrifugation at 5000 g for 10 min and resuspended in PBS. The protein content was measured using the BCA assay and normalized to 2 mg/mL. Cell lysates (50 μL) were labelled with azide-fluor 545 by click reaction (final reaction mixture: azide-fluor 545 (25 μM), copper(II) sulfate (1 mM), TBTA (100 μM), and freshly prepared TCEP (1 mM)) at room temperature with constant agitation. After incubation for 1 h, the reaction was quenched with the sampling buffer and boiled at 90° C. for 5 min. Samples were subjected to SDS-PAGE, in-gel fluorescence was captured using ChemiDoc MP (Bio-Rad), and Coomassie Blue staining was performed. Similarly, immunoblotting was used to investigate the protein targets of CL26. Huh7 cells stably transfected with FLAG-AGPAT4 were pre-treated with either the solvent control or CL26 at the indicated concentrations for 2 h, followed by CL26-alkyne (10 μM) treatment for another 2 h. Cells were harvested, and lysates were prepared as described above unless specified. Anti-FLAG M 2 affinity beads were added in FLAG-tag pull-down experiments. After 4 h of incubation at 4° C., the beads were washed with TBS-T and resuspended in TBS-T. Sampling buffer was added and the samples were boiled for protein elution. The samples were subjected to SDS-PAG E and imaged for fluorescence signals before western blot analysis. In the probe pull-down experiment, 1 mL of lysate was labelled with desthiobiotin (DTB)-azide by a click reaction (final reaction mixture: copper(II) sulfate (1 mM), TBTA (100 μM), DTB-PEG-azide (100 μM), and freshly prepared TCEP (1 mM)). […]

For data set [4], the system named is AGPAT LPAAT family members (AGPAT1, 2, 3, 4 and 5). Nature of the data set: Isoform specificity: streptavidin pulldown and immunoblotting of CL26-alkyne-bound proteins. It is filed as cell-based, human. To be noted: Huh7 cells, DTB-PEG-azide, streptavidin pulldown. Here is the method: An in-gel fluorescence assay was performed to investigate the protein targets of CL26. Huh7 cells overexpressing AGPAT4 or cysteine mutants were pre-treated with CL26 at the indicated concentrations for 2 h, followed by CL26-alkyne (1 μM) treatment for another 2 h. Cells were harvested in RIPA buffer supplemented with protease and phosphatase inhibitors (Thermo Fisher Scientific #A32961). The proteins were precipitated by incubation with 6× volume of pre-chilled acetone at −20° C. overnight. Proteins were pelleted by centrifugation at 5000 g for 10 min and resuspended in PBS. The protein content was measured using the BCA assay and normalized to 2 mg/mL. Cell lysates (50 μL) were labelled with azide-fluor 545 by click reaction (final reaction mixture: azide-fluor 545 (25 μM), copper(II) sulfate (1 mM), TBTA (100 μM), and freshly prepared TCEP (1 mM)) at room temperature with constant agitation. After incubation for 1 h, the reaction was quenched with the sampling buffer and boiled at 90° C. for 5 min. Samples were subjected to SDS-PAGE, in-gel fluorescence was captured using ChemiDoc MP (Bio-Rad), and Coomassie Blue staining was performed. Similarly, immunoblotting was used to investigate the protein targets of CL26. […] The samples were subjected to SDS-PAG E and imaged for fluorescence signals before western blot analysis. […]

A further data set has as its system advanced HCC. To be noted: advanced unresectable HCC, cited from earlier work.
In another data set the test system is MHCC97L cells. Nature of the data set: Orthotopic metastasis model, MHCC97L cells with AGPAT4 shRNA. It counts as in vivo, BALB/c nude mice. To be noted: MHCC97L cells injected intrahepatically, n=7 per group. The procedure: Metastasis was assessed by orthotopic injection into the liver to observe extrahepatic metastasis to the lungs. […] Six to eight weeks after implantation, mice were administered 100 mg/kg D-luciferin (Gold Biotechnology) via peritoneal injection 5 min before bioluminescence imaging (IV IS 100 Imaging System, Xenogen). The livers and lungs were harvested for ex vivo imaging and histological analyses. The metastatic nodules in the lungs were counted.

Like-named read-outs stand apart in the source and are kept apart here.

In the case of `CNC(=O)c1cc(Oc2ccc(NC(=O)Nc3ccc(Cl)c(C(F)(F)F)c3)cc2)ccn1` [sorafenib], the median overall survival with HCC [1] is given as 6.5 months; in the data set on HCC [2] (SHARP trial) it was 10.7 months. The tolerability entry in the data set on HCC [2] (phase III trials) is on record as “generally well tolerated”. Also, the “time to radiological progression under treatment” value with HCC [3] (HCC) was 4-5 months. Also, the “expansion of patient median survival” value in the data set with HCC [3] (first-line treatment of HCC) was “approximately 3 months”. Also, the “Agpat4 and p-mTOR expression in tumors” value in the data set on NRAS+AKT-driven HCC was “increase in Agpat4 and p-mTOR expression”.
Regarding 18:1 phosphatidic acid [PA], the “self-renewal, migration and invasion capacities” value in the data set on HCC cells (Huh7) is “markedly enhanced the self-renewal, migration, and invasion capacities of HCC cells”.
Take `C#CCCCN(Cc1ccc(-c2nc3ccccc3s2)o1)C(=O)CCl` [CL26-alkyne]: the “CL26-alkyne binding to AGPAT4 cysteine mutant (fluorescence signal)” value at AGPAT4 was “complete abolishment of the fluorescence signal”. For the same compound, the “specificity for AGPAT4 over other AGPAT LPAAT family members” value in data set [4] was “AGAPT4 was the only protein bound”.
Turning to `CO[C@H]1C[C@@H]2CC[C@@H](C)[C@@](O)(O2)C(=O)C(=O)N2CCCC[C@H]2C(=O)O[C@H]([C@H](C)C[C@@H]2CC[C@@H](OCCO)[C@H](OC)C2)CC(=O)[C@H](C)/C=C(\C)[C@@H](O)[C@@H](OC)C(=O)[C@H](C)C[C@H](C)/C=C/C=C/C=C/1C` [everolimus], the “median progression free survival” value with advanced HCC (28 patients) is listed as 3.8 months. The overall survival with advanced HCC is reported as 8.4 months.
Turning to “sh82: shRNA clone targeting human AGPAT4, clone ID NM_020133.3 (guide CCGGAUGAUUGGUGUGACGGAAAUUCUCGAGAAUUUCCGUCACACCAAUCAUUUUUUG)”, in the data set with MHCC97L cells, the “tumors developing extrahepatic metastases in the lung” value is 0 and the “tumors formed in the liver” value is 5 of 7.
The corresponding values for “sh83: second independent shRNA clone targeting human AGPAT4, printed sh83 in b403 (guide CCGGGUGAUCAUAGAAAGGGUAUUUCUCGAGAAAUACCCUUUCUAUGAUCACUUUUUG)” are 0 and 7 of 7.
